Results published in ChEMBL document CHEMBL1151491 (Bioorg Med Chem Lett, 1995).

What was measured:
[1] = biological target: T1, Muscarinic acetylcholine receptor M2 (Rattus norvegicus, UniProt P10980); assay: Inhibition of binding of [3H]N-methylscopolamine to muscarinic receptor (M2) in rat heart homogenates; type: tissue-based
T1 sequence (P10980 whole entry): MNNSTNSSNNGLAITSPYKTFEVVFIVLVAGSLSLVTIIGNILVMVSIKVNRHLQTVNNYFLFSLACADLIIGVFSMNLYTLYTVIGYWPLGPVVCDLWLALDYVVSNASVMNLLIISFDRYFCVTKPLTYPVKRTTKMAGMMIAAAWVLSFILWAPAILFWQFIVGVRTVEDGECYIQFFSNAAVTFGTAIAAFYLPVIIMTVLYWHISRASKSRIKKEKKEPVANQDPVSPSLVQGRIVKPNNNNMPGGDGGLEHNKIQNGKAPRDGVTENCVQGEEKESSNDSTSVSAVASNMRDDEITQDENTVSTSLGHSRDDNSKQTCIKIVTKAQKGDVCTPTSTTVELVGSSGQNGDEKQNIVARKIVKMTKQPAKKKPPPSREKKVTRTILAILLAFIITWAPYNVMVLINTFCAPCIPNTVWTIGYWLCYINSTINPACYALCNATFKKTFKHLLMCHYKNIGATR

[2] = biological target: T2, Muscarinic acetylcholine receptor M1 (Rattus norvegicus, UniProt P08482); assay: Inhibition of binding of [3H]pirenzepine to muscarinic receptor (M1) in rat cortex homogenates
T2 sequence (P08482 whole entry): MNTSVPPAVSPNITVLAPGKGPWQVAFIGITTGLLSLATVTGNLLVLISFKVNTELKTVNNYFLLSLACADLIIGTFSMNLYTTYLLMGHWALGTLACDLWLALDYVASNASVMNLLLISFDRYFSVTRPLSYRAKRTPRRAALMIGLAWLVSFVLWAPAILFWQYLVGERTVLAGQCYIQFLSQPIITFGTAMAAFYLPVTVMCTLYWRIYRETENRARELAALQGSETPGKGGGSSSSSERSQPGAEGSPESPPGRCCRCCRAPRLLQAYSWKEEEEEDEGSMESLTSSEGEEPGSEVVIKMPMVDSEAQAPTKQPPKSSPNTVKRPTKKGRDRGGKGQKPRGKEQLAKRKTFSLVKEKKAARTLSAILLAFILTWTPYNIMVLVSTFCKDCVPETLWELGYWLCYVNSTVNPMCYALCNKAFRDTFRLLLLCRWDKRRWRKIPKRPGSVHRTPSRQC

[3] = biological target: Muscarinic acetylcholine receptor M3 (Rattus norvegicus, UniProt P08483); assay: Inhibition of binding of [3H]N-methylscopolamine to muscarinic receptor (M3) in rat submaxillary gland homogenates
[4] = biological target: T3, Muscarinic acetylcholine receptor M4 (Rattus norvegicus, UniProt P08485); assay: Inhibition of binding of [3H]N-methylscopolamine to Muscarinic acetylcholine receptor M4 in NG 108-15 cell homogenates; type: cell-free
T3 sequence (P08485 whole entry): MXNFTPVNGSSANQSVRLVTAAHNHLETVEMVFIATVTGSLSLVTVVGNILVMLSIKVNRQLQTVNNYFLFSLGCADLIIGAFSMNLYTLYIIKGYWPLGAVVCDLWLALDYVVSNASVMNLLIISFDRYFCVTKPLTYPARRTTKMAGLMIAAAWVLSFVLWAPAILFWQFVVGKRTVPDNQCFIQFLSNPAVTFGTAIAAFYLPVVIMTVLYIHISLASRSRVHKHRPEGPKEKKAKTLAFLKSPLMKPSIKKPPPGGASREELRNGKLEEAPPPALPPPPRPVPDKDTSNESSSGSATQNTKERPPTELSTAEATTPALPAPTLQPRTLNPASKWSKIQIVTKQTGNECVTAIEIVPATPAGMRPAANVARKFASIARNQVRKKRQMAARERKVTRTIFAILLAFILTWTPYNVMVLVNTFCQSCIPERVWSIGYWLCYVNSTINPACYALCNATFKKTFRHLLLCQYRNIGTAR

Muscarinic acetylcholine receptor M3, sequence (P08483 whole entry): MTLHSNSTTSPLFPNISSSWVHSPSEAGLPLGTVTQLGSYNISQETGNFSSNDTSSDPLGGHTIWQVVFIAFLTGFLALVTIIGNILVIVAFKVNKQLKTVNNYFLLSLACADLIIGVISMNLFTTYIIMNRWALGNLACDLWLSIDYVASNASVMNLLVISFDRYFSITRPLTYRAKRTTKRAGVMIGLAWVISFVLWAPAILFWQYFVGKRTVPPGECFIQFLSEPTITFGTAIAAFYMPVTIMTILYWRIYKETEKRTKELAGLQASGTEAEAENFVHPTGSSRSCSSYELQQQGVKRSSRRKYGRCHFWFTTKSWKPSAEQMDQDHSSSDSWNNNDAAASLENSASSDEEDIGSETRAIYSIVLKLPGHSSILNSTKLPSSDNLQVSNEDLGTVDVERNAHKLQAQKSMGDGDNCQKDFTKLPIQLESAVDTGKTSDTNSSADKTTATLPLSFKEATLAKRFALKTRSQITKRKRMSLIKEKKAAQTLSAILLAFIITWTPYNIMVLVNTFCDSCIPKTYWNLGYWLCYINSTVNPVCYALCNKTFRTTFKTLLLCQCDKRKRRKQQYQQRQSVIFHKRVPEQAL

In the case of CN(CCCCCCCCN(C)CCCCCCN1CCC(OC(=O)C(c2ccccc2)c2ccccc2)CC1)CCCCCCN1CCC(OC(=O)C(c2ccccc2)c2ccccc2)CC1, the Ki [1] is reported as 182 nM, the Ki [2] is reported as 75.9 nM and the Ki [3] is reported as 2140 nM. For the same compound, the Ki [4] was 39.8 nM.

CN(CCCCCCCCN(C)CCCCCCN1CCC2(CC1)OC(=O)C(c1ccccc1)(c1ccccc1)O2)CCCCCCN1CCC2(CC1)OC(=O)C(c1ccccc1)(c1ccccc1)O2 [SPIROTRAMINE] was tested, and the Ki [1] was 631 nM, the Ki [2] was 13.2 nM and the Ki [3] was 977 nM. For the same compound, the Ki [4] was 537 nM.
